Data published in patent US9790231B2 (LUPIN LIMITED, priority 2013, dated 2017).
Where a name gives a salt, the structure may show the parent alone.

System: IL-2 secretion by Jurkat T cells
Assay: Inhibition of IL-2 secretion (PHA-stimulated Jurkat T cells, ELISA)
Type: cell-based
Details: Homo sapiens, 20 to 24 hours
Method: The CRAC channel modulatory activity of the compounds were thus evaluated by measuring the secretion of IL-2 by antigen stimulated T-cells in vitro. Alternatively, such activity can also be evaluated by assay methods known to one skilled in the art.
Inhibition of IL-2 secretion: Jurkat T cells were seeded at a density of 0.5 to 1 million cells per well in RPMI medium. Test compounds from this invention were added to the cells at different concentrations. This was followed by the addition of PHA, a T cell mitogen after 10 minutes. The cells were then incubated for 20 to 24 hours in a CO2 incubator at 37° C. After incubation with the compounds, cells were centrifuged; the supernatant was collected and processed for ELISA to quantitate the amount of IL-2 secreted. A commercial ELISA kit (R&D Systems, Inc. Minneapolis, Minn., USA) was used to estimate the IL-2 concentrations. Amount of IL-2 secreted by cells stimulated with PHA was considered as a 100% maximal signal and the decrease in amount of IL-2 secreted by cells treated with the test compounds was expressed as percent inhibition of the maximal signal. The dose response data was analyzed using 4-parametric sigmoidal dose response (variable slope) curve-fit.

SMILES | IC50
Cc1ccc2c(c1)C(c1ccc(NC(=O)c3c(F)cccc3F)nc1)=CC1(CCC1)O2 [Example 106, 2,6-Difluoro-N-(5-(6-methylspiro[chromene-2,1′-cyclobutan]-4-yl)pyridin-2-yl)benzamide] | 100 to 500 nM
Cc1cc2c(cc1-c1ccc(NC(=O)c3c(F)cccc3F)nc1)OC1(COC1)CC2=O [Example 124, 2,6-Difluoro-N-(5-(6-methyl-4-oxospiro[chroman-2,3′-oxetan]-7-yl)pyridin-2-yl)benzamide] | 25 to 50 nM
Cc1cc2c(cc1-c1ccc(C(=O)Nc3c(F)cncc3F)cc1)OC(C)(C)CC2=O [Example 43, N-(3,5-Difluoropyridin-4-yl)-4-(2,2,6-trimethyl-4-oxochroman-7-yl)benzamide] | 100 to 500 nM
Cc1cc2c(cc1-c1ccc(C(=O)Nc3c(F)cccc3F)cc1)OC1(CCC1)CC2=O [Example 13, N-(2,6-Difluorophenyl)-4-(6-methyl-4-oxospiro[chroman-2,1′-cyclobutan]-7-yl)benzamide] | 25 to 50 nM
Cc1cccc2c1OC1(C=C2c2ccc(NC(=O)c3c(F)cccc3F)cn2)CCC1 [Example 102, 2,6-Difluoro-N(6-(8-methylspiro[chromene-2,1′-cyclobutan]-4-yl)pyridin-3-yl)benzamide] | 25 to 50 nM
Cc1cc2c(cc1-c1ccc(NC(=O)c3c(F)cccc3F)cc1)OC1(CNC1)CC2=O [Example 120, 2,6-Difluoro-N-(4-(6′-methyl-4′-oxospiro[azetidine-3,2′-chroman]-7′-yl)phenyl)benzamide hydrochloride] | 50 to 100 nM
Cc1cc2c(cc1-c1ccc(NC(=O)c3c(F)cccc3F)cc1)OC(C)(C)CC2N(C)C (stereo not shown) [Example 62, N-(4-(4-(Dimethylamino)-2,2,6-trimethylchroman-7-yl)phenyl)-2,6-difluorobenzamide] | 50 to 100 nM
Cc1ccc2c(c1)OC1(C=C2c2ccc(NC(=O)c3c(F)cccc3F)cc2)CCC1 [Example 77, 2,6-Difluoro-N-(4-(7-methylspiro[chromene-2,1′-cyclobutan]-4-yl)phenyl)benzamide] | 50 to 100 nM
Cc1cc2c(cc1-c1ccc(NC(=O)c3c(C)cccc3F)cc1)OC1(CCC1)CC2=O [Example 10, 2-Fluoro-6-methyl-N-(4-(6-methyl-4-oxospiro[chroman-2,1′-cyclobutan]-7-yl)phenyl)benzamide] | 25 to 50 nM
CC1(C)CC(c2ccc(NC(=O)c3c(F)cccc3F)cc2)c2ccccc2O1 (stereo not shown) [Example 80, N-(4-(2,2-Dimethylchroman-4-yl)phenyl)-2,6-difluorobenzamide] | 100 to 500 nM
Cc1ccc2c(c1)C(c1ccc(NC(=O)c3c(F)cccc3F)cc1)=CC(C)(CO)O2 (stereo not shown) [Example 95, 2,6-Difluoro-N-(4-(2-(hydroxymethyl)-2,6-dimethyl-2H-chromen-4-yl)phenyl)benzamide] | 50 to 100 nM
CC1(CO)C=C(c2ccc(NC(=O)c3c(F)cccc3F)cc2)c2ccccc2O1 (stereo not shown) [Example 93, 2,6-Difluoro-N-(4-(2-(hydroxymethyl)-2-methyl-2H-chromen-4-yl)phenyl)benzamide] | 50 to 100 nM
Cc1cc2c(cc1-c1cnc(NC(=O)c3c(F)cccc3F)cn1)OC(C)(CO)CC2 (stereo not shown) [Example 114, 2,6-Difluoro-N-(5-(2-(hydroxymethyl)-2,6-dimethylchroman-7-yl)pyrazin-2-yl)benzamide] | 25 to 50 nM
COCC1(C)C=C(c2ccc(NC(=O)c3c(F)cccc3F)cc2)c2cc(C)ccc2O1 (stereo not shown) [Example 91] | 25 to 50 nM
COCC1(C)C=C(c2ccc(NC(=O)c3c(F)cccc3F)cc2)c2ccccc2O1 (stereo not shown) [Example 90] | 25 to 50 nM
Cc1cccc2c1OC1(C=C2c2ccc(C(=O)Nc3c(F)cncc3F)cc2)CCC1 [Example 111, N-(3,5-Difluoropyridin-4-yl)-4-(8-methylspiro[chromene-2,1′-cyclobutan]-4-yl)benzamide] | 25 to 50 nM
Cc1cccc2c1OC(C)(C)C=C2c1ccc(NC(=O)c2c(F)cccc2F)nc1 [Example 98, 2,6-Difluoro-N(5-(2,2,8-trimethyl-2H-chromen-4-yl)pyridin-2-yl)benzamide] | 25 to 50 nM
CC1(C)C=C(c2ccc(NC(=O)c3c(F)cccc3F)cc2)c2ccccc2O1 [Example 79, N-(4-(2,2-Dimethyl-2H-chromen-4-yl)phenyl)-2,6-difluorobenzamide] | 25 to 50 nM
CC1(C)C=C(c2ccc(NC(=O)c3c(F)cccc3F)nc2)c2ccccc2O1 [Example 108, N-(5-(2,2-Dimethyl-2H-chromen-4-yl)pyridin-2-yl)-2,6-difluorobenzamide] | 25 to 50 nM
CCc1cc2c(cc1-c1ccc(NC(=O)c3c(F)cccc3F)cc1)OC(C)(CO)CC2=O (stereo not shown) [Example 58, N-(4-(6-Ethyl-2-(hydroxymethyl)-2-methyl-4-oxochroman-7-yl)phenyl)-2,6-difluorobenzamide] | 50 to 100 nM
O=C(Nc1ccc(C2CC3(CCC3)Oc3ccccc32)cc1)c1c(F)cccc1F (stereo not shown) [Example 69, 2,6-Difluoro-N-(4-(spiro[chroman-2,1′-cyclobutan]-4-yl)phenyl)benzamide] | 100 to 500 nM
COCC1(C)C=C(c2ccc(NC(=O)c3c(F)cccc3F)cn2)c2cccc(C)c2O1 (stereo not shown) [Example 105, 2,6-Difluoro-N-(6-(2-(methoxymethyl)-2,8-dimethyl-2H-chromen-4-yl)pyridin-3-yl)benzamide] | 100 to 500 nM
Cc1cc2c(cc1-c1ccc(NC(=O)c3c(F)cccc3F)nc1)OC(C)(C)CC2=O [Example 6] | 25 to 50 nM
Cc1cc2c(cc1-c1ccc(NCc3c(F)cccc3F)nc1)OC(C)(C)CC2=O [Example 35, 7-(6-((2,6-Difluorobenzyl)amino)pyridin-3-yl)-2,2,6-trimethylchroman-4-one] | < 25 nM
Cc1cc2c(cc1-c1ccc(NC(=O)c3c(F)cccc3F)cn1)OC(C)(C)CC2=O [Example 27, 2,6-Difluoro-N-(6-(2,2,6-trimethyl-4-oxochroman-7-yl)pyridin-3-yl)benzamide] | 25 to 50 nM
CCc1cc2c(cc1-c1ccc(NC(=O)c3c(F)cccc3F)cc1)OC1(COC1)CC2=O [Example 125, N-(4-(6-Ethyl-4-oxospiro[chroman-2,3′-oxetan]-7-yl)phenyl)-2,6-difluorobenzamide] | < 25 nM

The next lines start with the values.

IC50 | SMILES
< 25 nM | Cc1cc2c(cc1-c1cnc(NC(=O)c3c(F)cccc3F)cn1)OC(C)(C)CC2=O [Example 4, 2,6-Difluoro-N-(5-(2,2,6-trimethyl-4-oxochroman-7-yl)pyrazin-2-yl)benzamide]
< 25 nM | CCc1cc2c(cc1-c1ccc(NC(=O)c3c(F)cccc3F)cc1)OC(C)(C)CC2 [Example 48b, N-(4-(6-Ethyl-2,2-dimethylchroman-7-yl)phenyl)-2,6-difluorobenzamide]
< 25 nM | COCC1(C)C=C(c2ccc(NC(=O)c3c(F)cccc3F)nc2)c2cccc(C)c2O1 (stereo not shown) [Example 104, 2,6-Difluoro-N-(5-(2-(methoxymethyl)-2,8-dimethyl-2H-chromen-4-yl)pyridin-2-yl)benzamide]
< 25 nM | Cc1cc2c(cc1-c1cnc(NC(=O)c3c(F)cccc3F)cn1)OC1(CCC1)CC2=O [Example 36, 2,6-Difluoro-N-(5-(6-methyl-4-oxospiro[chroman-2,1′-cyclobutan]-7-yl)pyrazin-2-yl)benzamide]
< 25 nM | Cc1cc2c(cc1-c1ccc(C(=O)Nc3c(F)cncc3F)cc1)OC1(CCC1)CC2=O [Example 64, N-(3,5-Difluoropyridin-4-yl)-4-(6-methyl-4-oxospiro[chroman-2,1′-cyclobutan]-7-yl)benzamide]
< 25 nM | COCC1(C)C=C(c2cnc(NC(=O)c3c(F)cccc3F)cn2)c2cccc(C)c2O1 (stereo not shown) [Example 103, 2,6-Difluoro-N-(5-(2-(methoxymethyl)-2,8-dimethyl-2H-chromen-4-yl)pyrazin-2-yl)benzamide]
< 25 nM | Cc1cc2c(cc1-c1ccc(NCc3c(F)cccc3F)cc1)OC(C)(C)CC2=O [Example 33, 7-(4-((2,6-Difluorobenzyl)amino)phenyl)-2,2,6-trimethylchroman-4-one]
< 25 nM | CCc1cc2c(cc1-c1ccc(NC(=O)c3c(F)cccc3F)cc1)OC1(CCC1)CC2 [Example 24, N-(4-(6-Ethylspiro[chroman-2,1′-cyclobutan]-7-yl)phenyl)-2,6-difluorobenzamide]
< 25 nM | CCc1cc2c(cc1-c1cnc(NC(=O)c3c(F)cccc3F)cn1)OC(C)(C)CC2=O [Example 5, N-(5-(6-Ethyl-2,2-dimethyl-4-oxochroman-7-yl)pyrazin-2-yl)-2,6-difluorobenzamide]
< 25 nM | Cc1cc2c(cc1-c1ccc(NC(=O)c3c(F)cccc3Cl)cc1)OC1(CCC1)CC2 [Example 8, 2-Chloro-6-fluoro-N-(4-(6-methylspiro[chroman-2,1′-cyclobutan]-7-yl)phenyl)benzamide]
< 25 nM | CCc1cc2c(cc1-c1ccc(C(=O)Nc3c(F)cncc3F)cc1)OC(C)(C)CC2=O [Example 42, N-(3,5-Difluoropyridin-4-yl)-4-(6-ethyl-2,2-dimethyl-4-oxochroman-7-yl)benzamide]
< 25 nM | Cc1c(-c2ccc(NC(=O)c3c(F)cccc3F)cc2)ccc2c1OC(C)(C)CC2 [Example 59, 2,6-Difluoro-N-(4-(2,2,8-trimethylchroman-7-yl)phenyl)benzamide]
< 25 nM | Cc1cccc2c1OC1(C=C2c2cnc(NC(=O)c3c(F)cccc3F)cn2)CCC1 [Example 100, 2,6-Difluoro-N-(5-(8-methylspiro[chromene-2,1′-cyclobutan]-4-yl)pyrazin-2-yl)benzamide]
< 25 nM | Cc1cc2c(cc1-c1ccc(NC(=O)c3c(F)cccc3F)cc1)OC1(CCC1)CC2 [Example 22, 2,6-Difluoro-N-(4-(6-methylspiro[chroman-2,1′-cyclobutan]-7-yl)phenyl)benzamide]
